Measurements as given in US20180303809A1, “TREATMENT OF BURN PAIN BY TRPV1 MODULATORS” (Purdue Pharma L.P., priority 2013, published 2018).
Values joined by “and” are separate entries in the source; they are usually repeats but may differ in a detail not shown here. Identical values can stand only once.

Key:
Format in all cases: in vivo, rat
male Sprague-Dawley rats [1] = test: Paw pressure assay, mechanical hyperalgesia (PWT) in thermal burn pain model; settings: rat burn injury 55° C. 24 s, 30 mg/kg PO
Experimental: (§1) Test Animals: Each experiment used male Sprague-Dawley rats weighing between 190-260 g at the time of thermal burn injury. The rats were housed two per cage, and were allowed to acclimate to their environment for at least six days before testing began. The rats had free access to food and water at all times, except during testing and prior to oral (PO) administration of a test compound, when food was removed about 16 hours before dosing. The rats were divided into treatment groups, and one of the following compounds was administered to each group at the dose and by the route of administration indicated in Tables 5.2A to 5.2C, 5.3A and 5.3B, and 5.4A and 5.4B: ketorolac (Sigma-Aldrich, St. Louis, Mo.), AMG 517 (selective TRPV1 antagonist described in Em. Doherty et al., “Novel vanilloid receptor-1 antagonists:2. Structure-activity relationships of 4-oxopyrimidines leading to the selection of a clinical candidate,” J Med Chem 50:3515-3527 (2007).) (Purdue Pharma L. P., Cranbury, N.J.), indomethacin (Alexis Biochemicals, Farmingdale, N.Y.), gabapentin (Bosche Scientific, New Brunswick, N.J.), or (S)-3-chloro-5-(1,2-dihydroxyethyl)-N-(5-(trifluoromethyl)pyridin-2-yl)-5′,6′-dihydro-[2,4′-bipyridine]-1′(2′H)-carboxamide (Compound 1). The control groups were administered the vehicle for the compound of formula (I). The volume of administration for PO treatment was 5 ml/kg, and was the same for all treatment groups. Volume of administration for intraperitoneal (i.p.) drug administration was 2 ml/kg.
(§2) To assess the actions of a compound of formula (I) for the treatment or prevention of burn pain, a model of thermal burn pain was used. A thermal burn injury was induced under isofluorane/O2 inhalation anesthesia. To assess mechanical hyperalgesia and weight bearing, a thermal injury was produced by immersing the left hind paw into water maintained at 55° C. for 24 seconds. The left hind paw of non-injured control animals was immersed in 22° C. water for 24 seconds. To assess thermal hyperalgesia, a thermal injury was produced by immersing the left hindpaw into water maintained at 50° C. for 48 seconds; the left hind-paw of non-injured control animals was immersed in 22° C. water for 48 seconds. The animals were assessed for response to noxious mechanical stimuli by determining PWT for mechanical hyperalgesia, weight bearing difference between the injured or non-injured side, or response to noxious thermal stimuli by determining PWL for thermal hyperalgesia, all as described below, prior to drug administration (baseline), then again at 1, 3 and 5 hours after induction of burn injury.
The paw pressure assay was used to assess mechanical hyperalgesia. For this assay, hind paw withdrawal thresholds (PWT) to a noxious mechanical stimulus were determined using an analgesimeter (Model 7200, commercially available from Ugo Basile of Italy) as described in C. Stein, “Unilateral Inflammation of the Hindpaw in Rats as a Model of Prolonged Noxious Stimulation: Alterations in Behavior and Nociceptive Thresholds,” Pharmacol. Biochem. and Behavior 31:451-455 (1988). The rat's paw was placed on a small platform, and weight was applied in a graded manner up to a maximum of 250 grams. The endpoint was taken as the weight at which the paw was completely withdrawn. PWT was determined once for each rat at each time point, wherein the affected (ipsilateral; same side as the injury) rear paw was tested. […] All drug treatment groups were compared to the vehicle control group (i.e. injured, administered only the vehicle).

male Sprague-Dawley rats [2] = test: Plantar test, thermal hyperalgesia (PWL) in thermal burn pain model; settings: rat burn injury 50° C. 48 s, 30 mg/kg PO
Experimental: as §1, §2
The plantar test was used to assess thermal hyperalgesia. For this test, hind paw withdrawal latencies (PWL) to a noxious thermal stimulus were determined using a plantar test apparatus (commercially available from Ugo Basile of Italy) following the technique described by K. Hargreaves et al., “A New and Sensitive Method for Measuring Thermal Nociception in Cutaneous Hyperalgesia,” Pain 32(1):77-88 (1988). The maximum exposure time was set at 32 seconds to avoid tissue damage and any directed paw withdrawal from the heat source is taken as the end point. Three latencies were determined at each time point and averaged.

male Sprague-Dawley rats [3] = test: Hind limb weight bearing (incapacitance meter, % WL) in thermal burn pain model; settings: rat burn injury 55° C. 24 s, 30 mg/kg PO, 30 mg/kg
Experimental: as §1, §2
A commercially available incapacitance meter was used to determine the weight distribution on the two hind paws of the animal (Linton Incapacitance Tester (Linton Instrumentation, Norfolk, UK)). The weight bearing difference (WBD) between the injured and non-injured hindpaw was measured. The animal was placed in the testing chamber that allows the animal to stand normally, distributing its body weight on the hind limbs for the test. Each hind paw was positioned on a separate pressure sensitive pad, which independently measures the pressure applied by each limb. The device continuously collects data after either a force threshold has been exceeded, or the investigator depresses the start pad. Rats were allowed to acclimate when placed on the apparatus, and when they were stationary, the force exerted was then continuously monitored for 3 s. The endpoint was the amount of pressure applied to each limb over time. Three readings were taken for each rat at each time point, and the average used for data analysis. WBD was expressed as “% WL”, i.e. the percentage of weight borne on the burn-injured left hind paw, using the following formula: […]
where WLP is the weight on the left hind paw and WRP is the weight on the right (untreated) hind paw. The 50% value of % WL corresponds to an equal weight distribution across both hind paws. […]

[4] = baseline (prior to drug administration)

Structure (SMILES): COc1ccc2c(c1)c(CC(=O)O)c(C)n2C(=O)c1ccc(Cl)cc1 [Indomethacin, indomethacin]
- % Decrease from Baseline (mean ± S.E.M.) of Paw Withdrawal Threshold (male Sprague-Dawley rats [1]; 1 h after administration): 51 ± 2.6 %
- % Decrease from Baseline (mean ± S.E.M.) of Paw Withdrawal Threshold (male Sprague-Dawley rats [1]; 3 h after administration): 45 ± 5.8 %
- % Decrease from Baseline (mean ± S.E.M.) of Paw Withdrawal Threshold (male Sprague-Dawley rats [1]; 5 h after administration): 58 ± 3.6%
- Paw Withdrawal Threshold (g) (mean ± S.E.M.) (male Sprague-Dawley rats [1]; 5 h after administration): 103 ± 10.2 g
- Paw Withdrawal Threshold (g) (mean ± S.E.M.) (male Sprague-Dawley rats [1]; [4]): 240 ± 7.5 g
- % Change from Baseline (mean ± S.E.M.) of Paw Withdrawal Latency (male Sprague-Dawley rats [2]; 1 h after administration): −41.5 ± 10.71%
- Paw Withdrawal Latency (sec) (mean ± S.E.M.) (male Sprague-Dawley rats [2]; 1 h after administration): 8.3 ± 0.91 s
- % Change from Baseline (mean ± S.E.M.) of Paw Withdrawal Latency (male Sprague-Dawley rats [2]; 3 h after administration): −26.1 ± 13.18%
- Paw Withdrawal Latency (sec) (mean ± S.E.M.) (male Sprague-Dawley rats [2]; 3 h after administration): 11.2 ± 0.87 s
- % Change from Baseline (mean ± S.E.M.) of Paw Withdrawal Latency (male Sprague-Dawley rats [2]; 5 h after administration): −25.5 ± 13.63%
- Paw Withdrawal Latency (sec) (mean ± S.E.M.) (male Sprague-Dawley rats [2]; 5 h after administration): 11.4 ± 0.51 s
- Paw Withdrawal Latency (sec) (mean ± S.E.M.) (male Sprague-Dawley rats [2]; [4]): 14.3 ± 1.26 s
- % WL (mean ± S.E.M.), percentage of weight borne on the burn-injured left hind paw (male Sprague-Dawley rats [3]; 3 h after administration): 42.6 ± 2.14% and 46.8 ± 2.17%
- % WL (mean ± S.E.M.), percentage of weight borne on the burn-injured left hind paw (male Sprague-Dawley rats [3]; 5 h after administration): 43.7 ± 2.38% and 48.2 ± 2.54%
- % WL (mean ± S.E.M.), percentage of weight borne on the burn-injured left hind paw (male Sprague-Dawley rats [3]; [4]): 49.1 ± 0.53% and 50.4 ± 0.54%
